# Experimental data published in patent publication US20250388632A1, “ANNEXIN A1-DERIVED POLYPEPTIDE ANALOGUES” (RESOTHER PHARMA A/S, priority 2022, published 2025).
# “And” between values parts separate entries of the source, which are not always exact repeats. Identical values can stand only once.
# Experiments:
# [1] = system: monocytes; test: Whole blood monocyte phagocytosis assay (pHrodo E. coli BioParticles, flow cytometry); format: cell-based; conditions: human whole blood, 1 h incubation, then pHrodo E. coli BioParticles 30 min, mean of four experiments
# Method: AnxA1 N-terminal fragments were assessed in whole blood phagocytosis assay. Whole blood from human subjects (45 μL) was incubated for 1 h with control peptide Anxa1 2-50 (100 nM) and test peptides Compound 1 (100 nM), Compound 2 (100 nM) and Compound 3 (30 nM), or vehicle in a 96-well plate. 50 μl pHrodo E. coli BioParticles Conjugate (5 μg/well) was added to the wells, and the plate was incubated at 37° C., 5% CO2 for 30 min. 150 μl of 4% PFA was added, and the plate incubated at 4° C. for 30 min. 30 μL from each well of the 96-well plate was transferred into flow cytometry tubes with 500 μL RPMI 1640 and 1 μL of Vybrant DyeCycle dye. Tubes were incubated for 30 min at 37° C. and 5% CO2, followed by addition of 2.5 mL of RPMI 1640 Medium in each tube.
# Samples were acquired on the Attune NxT Flow Cytometer. Monocyte phagocytosis was determined as an increase in pHrodo Green fluorescence relative to control sample.
# [2] = system: polymorphonuclear leukocytes (PMNs); test: PMN (neutrophil) chemotaxis, Transwell migration, CellTiter Glo readout; format: cell-based, human; conditions: 10 uM compound in receiver wells; 1 h migration, 37 °C; PMNs from buffy coats of healthy volunteers
# Method: AnxA1 N-terminal fragments were assessed in polymorphonuclear leukocytes (PMNs) isolated from buffy coats of healthy volunteers. PMNs were resuspended in migration medium (RPMI1640 (ATCC, Cat. No. 30-2001)+0.05% BSA-FAF) to a concentration of 5.5×10^6 cells/mL.
# Receiver wells of a Transwell plate were filled with 200 μL of migration medium with 10 uM of compound 1, 2 or 3. Donor plate was inserted and 75 μL of cell suspension was added to upper wells ([…]). Plates were incubated for 1 h (37° C., 5% CO2, 95% humidity). The number of migrated cells was assessed by removing Transwell insert with cells from the plate in order to stop migration, followed by addition of 200 μL CellTiter Glo reagent to lower wells. Plates were incubated for 10 minutes in the dark (at room temperature), and 200 μL was transferred to white 96 well plates (Lumitrac 200). Luminescence was measured by use of EnVision 2104 (Perkin Elmer) (exposition time 0.1 s)
# The chemotaxis response was estimated by calculating fold change compared to negative control (vehicle).
Sequence,Fold increase relative to vehicle (monocyte phagocytosis) ([1]; peptide 100 nM),Fold increase relative to vehicle (PMN chemotaxis) [2],Fold increase relative to vehicle (monocyte phagocytosis) ([1]; peptide 30 nM),"Fold increase relative to vehicle (monocyte phagocytosis) ([1]; peptide 100 nM, listed as AnxA1 2-50)"
AMVSEFLKQAWFIENEEQEYVQTLKSSK (Val24Leu variant of AnxA1 fragment; MISC_FEATURE - Val24Leu variant of AnxA1 fragment) [Compound 1],2.6 fold,3 fold and 3.1 fold,–,–
AMVSEFLKQAWFIENEEQEYVQTLKSSKGGPGSAVSPY (Val24Leu variant of AnxA1 fragment; MISC_FEATURE - Val24Leu variant of AnxA1 fragment) [Compound 3],–,1.6 fold,2.9 fold,–
"AMVSEFLKQAWFIENEEQEYVQTVKSSKGGPGSAVSPYPTFNPSSDVAA (Synthetic sequence having some homology with human annexin 1) [Anxa1 2-50, reference compound]",1.9 fold,–,–,~2 fold
AMVSEFLKQAWFIENEEQEYVQTLKSSKGGPGS (Val24Leu variant of AnxA1 fragment; MISC_FEATURE - Val24Leu variant of AnxA1 fragment) [Compound 2],2.8 fold,2 fold and 2.0 fold,–,–
